Four molecules from article PMC3914206 can be followed below.

The target of test [1] is T1, panel of 442 kinases (Homo sapiens, UniProt P36507).
T1 construct: purchased KINOMEscan
The test is classed as binding. Conditions: Compound Concentration 10 µM. The source says: (§1) We assessed the selectivity of members of this scaffold using the KINOMEscan methodology across a near comprehensive panel of 442 kinases [[18,27]].

Test [2] has as its target T2, panel of 442 kinases (Homo sapiens, UniProt Q15139).
T2 construct: purchased KINOMEscan
T2 sequence (Q15139 1-912): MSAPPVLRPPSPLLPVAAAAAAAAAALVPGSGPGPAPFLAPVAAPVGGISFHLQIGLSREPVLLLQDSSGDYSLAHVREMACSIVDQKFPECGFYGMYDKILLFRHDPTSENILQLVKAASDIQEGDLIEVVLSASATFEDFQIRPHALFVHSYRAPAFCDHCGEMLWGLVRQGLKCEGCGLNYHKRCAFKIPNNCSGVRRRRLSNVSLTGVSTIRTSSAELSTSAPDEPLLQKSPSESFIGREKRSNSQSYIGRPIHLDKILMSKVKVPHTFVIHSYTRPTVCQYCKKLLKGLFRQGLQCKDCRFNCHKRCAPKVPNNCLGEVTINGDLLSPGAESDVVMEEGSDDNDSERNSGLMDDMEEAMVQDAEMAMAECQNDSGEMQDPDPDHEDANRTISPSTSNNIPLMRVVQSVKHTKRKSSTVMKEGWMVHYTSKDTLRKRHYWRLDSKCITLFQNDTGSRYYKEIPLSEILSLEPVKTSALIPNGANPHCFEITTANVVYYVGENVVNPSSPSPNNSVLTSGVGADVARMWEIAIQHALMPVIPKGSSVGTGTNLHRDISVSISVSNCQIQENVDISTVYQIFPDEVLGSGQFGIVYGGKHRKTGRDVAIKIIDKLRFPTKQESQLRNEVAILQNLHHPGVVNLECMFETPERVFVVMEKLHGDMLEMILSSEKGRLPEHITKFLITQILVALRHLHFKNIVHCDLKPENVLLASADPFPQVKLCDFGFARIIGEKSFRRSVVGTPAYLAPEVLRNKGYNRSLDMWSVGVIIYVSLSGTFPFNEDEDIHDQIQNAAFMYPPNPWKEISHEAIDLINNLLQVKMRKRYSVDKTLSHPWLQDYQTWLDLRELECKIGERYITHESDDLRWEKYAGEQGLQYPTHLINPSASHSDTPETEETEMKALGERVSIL
The test is classed as binding. Conditions: Compound Concentration 10 µM.
Text: as §1

T1 sequence (P36507 whole entry): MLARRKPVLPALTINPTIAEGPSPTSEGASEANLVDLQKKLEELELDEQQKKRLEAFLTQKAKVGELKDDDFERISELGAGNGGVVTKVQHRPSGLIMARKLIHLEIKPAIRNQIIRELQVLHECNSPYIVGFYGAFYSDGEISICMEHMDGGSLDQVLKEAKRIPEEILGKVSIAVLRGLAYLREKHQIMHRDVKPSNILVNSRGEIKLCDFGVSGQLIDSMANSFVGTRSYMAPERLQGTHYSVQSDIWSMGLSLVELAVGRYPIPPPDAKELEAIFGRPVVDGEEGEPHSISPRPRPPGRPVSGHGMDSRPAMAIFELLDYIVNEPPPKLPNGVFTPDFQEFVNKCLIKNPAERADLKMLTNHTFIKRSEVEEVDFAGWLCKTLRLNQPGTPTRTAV

In the case of `CCOc1cc(C(=O)N2CCC(N3CCN(C)CC3)CC2)ccc1Nc1ncc2c(n1)N(C1CCCC1)c1ccccc1C(=O)N2C` [Compound 26], the “KINOMEscan: MEK2” value on panel of 442 kinases [1] worked out at 89. Also, the “KINOMEscan: PRKD1” value on panel of 442 kinases [2] is 100.
Consider `COc1cc(C(=O)N2CCC(N3CCN(C)CC3)CC2)ccc1Nc1ncc2c(n1)N1CCc3cccc(c31)C(=O)N2C` [Compound 24], for which, on panel of 442 kinases [2], the “KINOMEscan: PRKD1” value amounted to 21.
For the molecule `COc1cc(C(=O)N2CCC(N3CCN(C)CC3)CC2)ccc1Nc1ncc2c(n1)N(C)c1ccccc1C(=O)N2C` [15 (LRRK2-IN-1)], the “KINOMEscan: MEK2” value at panel of 442 kinases [1] is listed as 99. Also, the “KINOMEscan: PRKD1” value at panel of 442 kinases [2] came to 28.
Taken in the same sequence, the figures for `COc1cc(C(=O)N2CCC(N3CCN(C)CC3)CC2)ccc1Nc1ncc2c(n1)N(C1CCCC1)c1ccccc1C(=O)N2C` [Compound 25, 11-cyclopentyl-2-((2-methoxy-4-(4-(4-methylpiperazin-1-yl)piperidine-1-carbonyl)phenyl)amino)-5-methyl-5H-benzo[e]pyrimido[5,4-b][1,4]diazepin-6(11H)-one] were 66 and 100.
